We go through ten molecules from ChEMBL document CHEMBL1154961, “Structure-activity relationships of bacterial outer-membrane permeabilizers based on polymyxin B heptapeptides” (2010).

Converted amounts (≈) assume the structure as drawn. A value given as a limit tells only on which side of the number the result lay.

Test [1] has as its system Escherichia coli. Nature of the test: Antibacterial activity against Escherichia coli K-12 W3110 after 20 hrs by liquid microdilution method. It is filed as functional. The following applies: K-12 W3110, 20 h.
The subject of another test is Staphylococcus aureus. Nature of the test: Antibacterial activity against Staphylococcus aureus 209P after 20 hrs by liquid microdilution method. It is filed as functional.
The test system of test [2] is Escherichia coli. Kind of test: Induction of outer membrane permeability in Escherichia coli K-12 W3110 assessed as increase in erythromycin antibacterial activity after 20 hrs by liquid microdilution method. It is filed as functional, organism-based.
For test [3], the system named is Escherichia coli. Kind of test: Induction of outer membrane permeability in Escherichia coli K-12 W3110 assessed as increase in novobiocin antibacterial activity after 20 hrs by liquid microdilution method. It is filed as functional, organism-based.

`CCCCCCCC(=O)N[C@@H](CCN)C(=O)N[C@@](C)(C(=O)N[C@@H](CCN)C(=O)N[C@H]1CCNC(=O)[C@H]([C@@H](C)O)NC(=O)[C@H](CCN)NC(=O)[C@H](CCN)NC(=O)[C@H](CC(C)C)NC(=O)[C@@H](Cc2ccccc2)NC(=O)[C@H](CCN)N1)[C@H](C)O`: the MIC in the test on Escherichia coli [1] is 0.5 µg/mL (≈ 0.425 µM); against Staphylococcus aureus it was greater than 128 µg/mL. `CC(C)C[C@@H]1NC(=O)[C@@H](Cc2ccccc2)NC(=O)[C@H](CN)N(C(=O)O)CCNC(=O)[C@H]([C@@H](C)O)NC(=O)[C@H](CN)NC(=O)[C@H](CN)NC1=O` showed an MIC against Escherichia coli [1] greater than 128 µg/mL. Turning to `CC(C)C[C@@H]1NC(=O)[C@@H](Cc2ccccc2)NC(=O)[C@H](CCN)N(C(=O)O)CCNC(=O)[C@H]([C@@H](C)O)NC(=O)[C@H](CCN)NC(=O)[C@H](CCN)NC1=O`, the MIC with Escherichia coli [1] is greater than 128 µg/mL. Also, the Activity entry in the test on Escherichia coli [2] and with Escherichia coli [3] was “Dose-dependent effect” in each case. For the molecule `CC(C)CCCCCCCC(=O)N[C@@H](C(=O)N[C@@H](CN)C(=O)NCC(=O)N1CCNC(=O)[C@H]([C@@H](C)O)NC(=O)[C@H](CCN)NC(=O)[C@H](CCN)NC(=O)[C@H](CC(C)C)NC(=O)[C@@H](Cc2ccccc2)NC(=O)[C@@H]1CCN)[C@@H](C)O`, the minimal inhibitory concentration (MIC) against Escherichia coli [1] amounted to 0.5 µg/mL (≈ 0.447 µM); with Staphylococcus aureus it was 64 µg/mL (≈ 57.3 µM). For `CCCCCCCC(=O)N[C@@H](CCN)C(=O)N[C@@H](C(=O)N[C@@H](CCN)C(=O)N[C@H]1CCNC(=O)[C@H]([C@H](C)O)NC(=O)[C@H](CCN)NC(=O)[C@H](CCN)NC(=O)[C@H](CC(C)C)NC(=O)[C@@H](Cc2ccccc2)NC(=O)[C@H](CN)C1=O)[C@H](C)O`, in that order: 16 µg/mL (≈ 13.8 µM) and greater than 128 µg/mL. For `CC[C@H]1OC(=O)[C@H](C)[C@@H](O[C@H]2C[C@@](C)(OC)[C@@H](O)[C@H](C)O2)[C@H](C)[C@@H](O[C@@H]2O[C@H](C)C[C@H](N(C)C)[C@H]2O)[C@](C)(O)C[C@@H](C)C(=O)[C@H](C)[C@@H](O)[C@]1(C)O` [ERYTHROMYCIN], in the test with Escherichia coli [1], it took 64 µg/mL (≈ 87.2 µM) to inhibit growth (MIC).

Molecule `CC(C)C[C@@H]1NC(=O)[C@@H](Cc2ccccc2)NC(=O)[C@H](CN)N(C(=O)O)CCNC(=O)[C@H]([C@@H](C)O)NC(=O)[C@H](CN)NC(=O)[C@H](CCCN)NC1=O` came in with a minimal inhibitory concentration (MIC) in the test on Escherichia coli [1] greater than 128 µg/mL.

Take `CC(C)C[C@@H]1NC(=O)[C@@H](Cc2ccccc2)NC(=O)[C@H](CN)N(C(=O)O)CCNC(=O)[C@H]([C@@H](C)O)NC(=O)[C@H](CCCN)NC(=O)[C@H](CN)NC1=O`: the MIC with Escherichia coli [1] was greater than 128 µg/mL. Same read-out and setting: in the case of `CC(C)C[C@@H]1NC(=O)[C@@H](Cc2ccccc2)NC(=O)[C@H](CCCN)N(C(=O)O)CCNC(=O)[C@H]([C@@H](C)O)NC(=O)[C@H](CCCN)NC(=O)[C@H](CCCN)NC1=O` it was greater than 128 µg/mL. In turn, `CO[C@@H]1[C@@H](OC(N)=O)[C@@H](O)[C@H](Oc2ccc3c(O)c(NC(=O)c4ccc(O)c(CC=C(C)C)c4)c(=O)oc3c2C)OC1(C)C` [NOVOBIOCIN] gave an MIC with Escherichia coli [1] of 128 µg/mL (≈ 209 µM).
